The compounds below were run against T1, human TREM2 (Homo sapiens, UniProt Q9NZC2) (assay: Cellular phosphorylation of Syk (AlphaLisa) in HEK293T-hTREM2 cells, TREM2 agonist potency). Details: HEK293 cells expressing human TREM2 and DAP12; pSyk AlphaLisa; Table D.
T1 construct: expressed in transfected cells; host or cells: HEK293T (HEK293T-hTREM2 cells)
Type: cell-based
Procedure: In Vitro Measurement of Triggering Receptor Expressed on Myeloid Cells 2 Activity Using Cellular Phosphorylation of Spleen Tyrosine Kinase (“Syk”) Assays
Measurement of TREM2 agonist potency was done using a HEK cell line expressing human TREM2 and DAP12 (HEK293T-hTREM2 cells). Binding of small molecules to, and activation of, TREM2 increases the phosphorylation of Syk. The resultant levels of Syk phosphorylation are measured using a commercial AlphaLisa reagent kit. To perform the assay, HEK-hTREM2 cells were plated at 14,000 cells per well in a 384 well plate, in 25 μL of complete growth media and incubated at 37° C., 5% CO2 for 20-24 hours.
Prior to the assay, test compounds were diluted in the 384 well plates in assay buffer and allowed to equilibrate for 30 minutes. Growth media was removed from cell plates by inversion on blotting paper, and 25 μL of test articles in assay buffer was added to cells. Cells were incubated for 45 minutes at room temperature. After 45 minutes, assay buffer was removed and 10 μL of lysis buffer was added. Plates were shaken for 20 minutes at 350 RPM at room temperature. After complete lysis, AlphaLisa reagents were added to the lysate, and fluourescence intensity was measured using a Perkin Elmer Envision plate reader. Intensities were used to generate a standard curve, and % activation was calculated. Curve fitting was performed using Prism v9 software, log(agonist) vs response—variable slope (four parameters), and EC50s were calculated from the curve fit.
The results presented in Table D have been generated with the in vitro assay described above. This assay may be used to test any of the compounds described herein to assess and characterize a compound's ability to act as an agonist of TREM2.

T1 sequence (Q9NZC2 19-230): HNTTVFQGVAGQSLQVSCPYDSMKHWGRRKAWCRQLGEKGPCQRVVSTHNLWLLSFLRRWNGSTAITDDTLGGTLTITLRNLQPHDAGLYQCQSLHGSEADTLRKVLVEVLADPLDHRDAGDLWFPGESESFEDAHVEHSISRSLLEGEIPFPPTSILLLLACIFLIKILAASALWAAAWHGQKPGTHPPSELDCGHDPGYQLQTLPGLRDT
T1 sequence (O43914 22-113 partner): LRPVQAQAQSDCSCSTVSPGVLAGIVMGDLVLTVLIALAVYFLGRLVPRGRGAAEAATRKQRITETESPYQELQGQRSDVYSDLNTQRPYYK

**Q.** Which EC50 does the source give for `Cc1cc2c(-c3ccc(Cl)cc3)nn(-c3ccc(OC(F)(F)F)cc3)c(=O)c2nc1C` [compound 1, 5-(4-chlorophenyl)-2,3-dimethyl-7-(4-(trifluoromethoxy)phenyl)pyrido[2,3-d]pyridazin-8 (7H)-one] here?
**A.** 0.5 to 3 µM

**Q.** How did the EC50 turn out when `Cc1cc2c(-c3ccc(Cl)cc3)nn(-c3ccc(OC(F)(F)F)cc3)c(=O)c2cc1C` [compound 10, 4-(4-chlorophenyl)-6,7-dimethyl-2-(4-(trifluoromethoxy)phenyl)phthalazin-1(2H)-one] was run?
**A.** 0.5 to 3 µM

**Q.** For `CC(C)n1ccc(-n2nc(-c3ccc(Cl)cc3)c3cc(Cl)c(Cl)cc3c2=O)cc1=O` [compound 11, 6,7-dichloro-4-(4-chlorophenyl)-2-(1-isopropyl-2-oxo-1,2-dihydropyridin-4-yl)phthalazin-1(2H)-one], which EC50 is on record?
**A.** 0.5 to 3 µM

**Q.** Which EC50 does the source give for `CC(C)Oc1cc(-n2nc(-c3ccc(Cl)cc3)c3cc(Cl)c(Cl)cc3c2=O)ccn1` [compound 12, 6,7-dichloro-4-(4-chlorophenyl)-2-(2-isopropoxypyridin-4-yl)phthalazin-1(2H)-one] here?
**A.** 0.5 to 3 µM

**Q.** `CC(=O)N1CCC(n2nc(-c3ccc(Cl)cc3)c3cc(Cl)c(Cl)cc3c2=O)CC1` [compound 13, 2-(1-acetylpiperidin-4-yl)-6,7-dichloro-4-(4-chlorophenyl)phthalazin-1(2H)-one] was tested. Which EC50 did it give?
**A.** 3 to 100 µM

**Q.** Which EC50 does the source give for `Cc1cc2c(-c3ccc(Cl)cc3)nn(-c3ccnc(C4COC4)c3)c(=O)c2cc1C` [compound 14, 4-(4-chlorophenyl)-6,7-dimethyl-2-(2-(oxetan-3-yl)pyridin-4-yl)phthalazin-1(2H)-one] here?
**A.** 0.5 to 3 µM

**Q.** For `Cc1cc2c(-c3ccc(Cl)cc3)nn(-c3ccnc(C4CCC4)c3)c(=O)c2cc1C` [compound 15, 4-(4-chlorophenyl)-2-(2-cyclobutylpyridin-4-yl)-6,7-dimethylphthalazin-1(2H)-one], which EC50 is on record?
**A.** 0.5 to 3 µM

**Q.** With `Cc1cc2c(-c3ccc(Cl)cc3)nn(-c3ccnc(C4CNC4)c3)c(=O)c2cc1C` [compound 16, 2-(2-(azetidin-3-yl)pyridin-4-yl)-4-(4-chlorophenyl)-6,7-dimethylphthalazin-1(2H)-one] as the compound, how does the EC50 read?
**A.** 0.5 to 3 µM

**Q.** With `Cc1cc2c(-c3ccc(Cl)cc3)nn(-c3ccc(C4CC4)nc3)c(=O)c2cc1C` [compound 17, 4-(4-chlorophenyl)-2-(6-cyclopropylpyridin-3-yl)-6,7-dimethylphthalazin-1(2H)-one] as the compound, how does the EC50 read?
**A.** 3 to 100 µM

**Q.** How did the EC50 turn out when `Cc1cc2c(-c3ccc(Cl)cc3)nn(-c3ccnc(N4CCN(C(=O)OC(C)(C)C)CC4)c3)c(=O)c2cc1C` [compound 18, tert-butyl 4-(4-(4-(4-chlorophenyl)-6,7-dimethyl-1-oxophthalazin-2(1H)-yl)pyridin-2-yl)piperazine-1-carboxylate] was run?
**A.** 0.5 to 3 µM

**Q.** For `Cc1cc2c(-c3ccc(Cl)cc3)nn(-c3ccc4c(c3)OCO4)c(=O)c2cc1C` [compound 19, 2-(benzo[d][1,3]dioxol-5-yl)-4-(4-chlorophenyl)-6,7-dimethylphthalazin-1(2H)-one], which EC50 is on record?
**A.** 3 to 100 µM

**Q.** For `Cc1cc2c(-c3ccc(Cl)cc3)nn(-c3ccnc(OC4CN(C(=O)OC(C)(C)C)C4)c3)c(=O)c2cc1C` [compound 20, tert-butyl 3-((4-(4-(4-chlorophenyl)-6,7-dimethyl-1-oxophthalazin-2(1H)-yl)pyridin-2-yl)oxy)azetidine-1-carboxylate], which EC50 is on record?
**A.** 0.5 to 3 µM

**Q.** `CN1CCC(n2nc(-c3ccc(Cl)cc3)c3cc(Cl)c(Cl)cc3c2=O)CC1=O` (centres unmarked) [compound 21, 6,7-dichloro-4-(4-chlorophenyl)-2-(1-methyl-2-oxopiperidin-4-yl)phthalazin-1(2H)-one] was tested. Which EC50 did it give?
**A.** 3 to 100 µM

**Q.** For `Cc1cc2c(-c3ccc(Cl)cc3)nn(-c3ccnc(C4CCN(C(=O)OC(C)(C)C)CC4)c3)c(=O)c2cc1C` [compound 22, tert-butyl 4-(4-(4-(4-chlorophenyl)-6,7-dimethyl-1-oxophthalazin-2(1H)-yl)pyridin-2-yl)piperidine-1-carboxylate], which EC50 is on record?
**A.** 0.5 to 3 µM

**Q.** How did the EC50 turn out when `Cc1ccc2c(-c3ccc(Cl)cc3)nn(-c3ccc(OC(F)(F)F)cc3)c(=O)c2n1` [compound 23, 5-(4-chlorophenyl)-2-methyl-7-(4-(trifluoromethoxy)phenyl)pyrido[2,3-d]pyridazin-8(7H)-one] was run?
**A.** 0.5 to 3 µM

**Q.** `Cc1nc2c(=O)n(CC(=O)c3ccc(Cl)cc3)nc(-c3ccc(Cl)cc3)c2s1` [compound 24, 7-(4-chlorophenyl)-5-(2-(4-chlorophenyl)-2-oxoethyl)-2-methylthiazolo[4,5-d]pyridazin-4(5H)-one] was tested. Which EC50 did it give?
**A.** 3 to 100 µM

**Q.** For `CNC(Cn1nc(-c2ccc(Cl)cc2)c2sc(C)nc2c1=O)c1ccc(Cl)cc1` (centres unmarked) [compound 25, 7-(4-chlorophenyl)-5-(2-(4-chlorophenyl)-2-(methylamino)ethyl)-2-methylthiazolo[4,5-d]pyridazin-4(5H)-one], which EC50 is on record?
**A.** 3 to 100 µM

Same assay, conditions: HEK293 cells expressing human TREM2 and DAP12; pSyk AlphaLisa; Table D-2

**Q.** Which EC50 does the source give for `Cc1cc2c(-c3ccc(Cl)cc3)nn(-c3ccnc(NC4CCOC4)c3)c(=O)c2nc1C` (racemic) [I-113, 5-(4-chlorophenyl)-2,3-dimethyl-7-(2-((tetrahydrofuran-3-yl)amino)pyridin-4-yl)pyrido[2,3-d]pyridazin-8 (7H)-one] here?
**A.** 0.5 to 3 µM

**Q.** For `Cc1cc2c(-c3ccc(Cl)cc3)nn(-c3ccnc(OC4CNC4)c3)c(=O)c2nc1C` [I-94, 7-[2-(azetidin-3-yloxy)-4-pyridyl]-5-(4-chlorophenyl)-2,3-dimethyl-pyrido[2,3-d]pyridazin-8-one; 2,2,2-trifluoroacetic acid], which EC50 is on record?
**A.** 0.5 to 3 µM

**Q.** `Cc1cc2c(-c3ccc(Cl)c(Cl)c3)nn(-c3ccnc(C4COC4)c3)c(=O)c2cc1C` [I-107, 4-(3,4-dichlorophenyl)-6,7-dimethyl-2-[2-(oxetan-3-yl)-4-pyridyl]phthalazin-1-one] was tested. Which EC50 did it give?
**A.** 0.5 to 3 µM

**Q.** How did the EC50 turn out when `COc1ccc(-c2nn(-c3ccnc(C4COC4)c3)c(=O)c3cc(C)c(C)cc23)cc1` [I-108, 4-(4-methoxyphenyl)-6,7-dimethyl-2-[2-(oxetan-3-yl)-4-pyridyl]phthalazin-1-one] was run?
**A.** 0.5 to 3 µM

**Q.** For `Cc1cc2c(-c3ccc(Cl)cc3)nn(-c3ccnc(C4CC(OCc5ccccc5)C4)c3)c(=O)c2cc1C` (centres unmarked) [I-109, 2-(2-(3-(benzyloxy)cyclobutyl)pyridin-4-yl)-4-(4-chlorophenyl)-6,7-dimethylphthalazin-1 (2H)-one], which EC50 is on record?
**A.** 0.5 to 3 µM

**Q.** For `Cc1cc2c(-c3ccc(Cl)cc3F)nn(-c3ccnc(C4COC4)c3)c(=O)c2cc1C` [I-111, 4-(4-chloro-2-fluoro-phenyl)-6,7-dimethyl-2-[2-(oxetan-3-yl)-4-pyridyl]phthalazin-1-one], which EC50 is on record?
**A.** 0.5 to 3 µM

**Q.** For `Cc1cc2c(-c3ccc(Cl)cc3)nn(-c3ccnc(C4COC4)c3)c(=O)c2nc1C` [I-112, 5-(4-chlorophenyl)-2,3-dimethyl-7-[2-(oxetan-3-yl)-4-pyridyl]pyrido [2,3-d]pyridazin-8-one], which EC50 is on record?
**A.** 3 to 100 µM

**Q.** With `Cc1cc2c(-c3ccc(Cl)cc3)nn(-c3ccnc(NC4COC4)c3)c(=O)c2nc1C` [I-116, 5-(4-chlorophenyl)-2,3-dimethyl-7-(2-(oxetan-3-ylamino)pyridin-4-yl)pyrido[2,3-d]pyridazin-8 (7H)-one] as the compound, how does the EC50 read?
**A.** 0.5 to 3 µM

**Q.** How did the EC50 turn out when `Cc1cc2c(-c3ccc(Cl)cc3)nn(-c3ccnc(NC4CC(F)(F)C4)c3)c(=O)c2nc1C` [I-117, 5-(4-chlorophenyl)-7-(2-((3,3-difluorocyclobutyl)amino)pyridin-4-yl)-2,3-dimethylpyrido[2,3-d]pyridazin-8 (7H)-one] was run?
**A.** 0.5 to 3 µM

**Q.** `Cc1cc2c(-c3ccc(Cl)cc3)nn(-c3ccc(NC4COC4)nc3)c(=O)c2nc1C` [I-118, 5-(4-chlorophenyl)-2,3-dimethyl-7-[6-(oxetan-3-ylamino)-3-pyridyl]pyrido [2,3-d]pyridazin-8-one; formic acid] was tested. Which EC50 did it give?
**A.** 0.5 to 3 µM

**Q.** With `Cc1cc2c(-c3ccc(Cl)cc3)nn(-c3ccc(N(C)C4COC4)nc3)c(=O)c2nc1C` [I-119, 5-(4-chlorophenyl)-2,3-dimethyl-7-[6-[methyl(oxetan-3-yl)amino]-3-pyridyl]pyrido[2,3-d]pyridazin-8-one; formic acid] as the compound, how does the EC50 read?
**A.** 0.5 to 3 µM

**Q.** Which EC50 does the source give for `Cc1cc2c(-c3ccc(Cl)cc3)nn(-c3ccnc(Nc4cnn(C5CC5)c4)c3)c(=O)c2nc1C` [I-120, 5-(4-chlorophenyl)-7-(2-((1-cyclopropyl-1H-pyrazol-4-yl)amino)pyridin-4-yl)-2,3-dimethylpyrido[2,3-d]pyridazin-8 (7H)-one] here?
**A.** 0.05 to 0.5 µM

**Q.** How did the EC50 turn out when `Cc1cc2c(-c3ccc(F)cc3)nn(-c3ccc(OC(F)(F)F)cc3)c(=O)c2nc1C` [I-121, 5-(4-fluorophenyl)-2,3-dimethyl-7-(4-(trifluoromethoxy)phenyl)pyrido[2,3-d]pyridazin-8 (7H)-one] was run?
**A.** 3 to 100 µM

**Q.** Which EC50 does the source give for `Cc1cc2c(-c3ccc(Cl)cc3)cn(-c3ccc(OC(F)(F)F)cc3)c(=O)c2nc1C` [I-122, 5-(4-chlorophenyl)-2,3-dimethyl-7-(4-(trifluoromethoxy)phenyl)-1,7-naphthyridin-8 (7H)-one] here?
**A.** 0.5 to 3 µM

**Q.** For `Cc1nc2c(-c3ccc(C(F)(F)F)cc3F)cn([C@H]3CCO[C@@H](c4cnn(C5CC5)c4)C3)c(=O)c2nc1C` [I-123, 6-[(2R,4S)-2-(1-cyclopropyl-1H-pyrazol-4-yl)tetrahydro-2H-pyran-4-yl]-8-[2-fluoro-4-(trifluoromethyl)phenyl]-2,3-dimethylpyrido[3,4-b]pyrazin-5 (6H)-one], which EC50 is on record?
**A.** 0.5 to 3 µM

— patent US20260152484A1, “HETEROCYCLIC COMPOUNDS AS TRIGGERING RECEPTOR EXPRESSED ON MYELOID CELLS 2 AGONISTS” (Vigil Neuroscience, Inc., priority 2021, published 2026)
